The source made the active and inactive calls. No cut-off for these calls is given here.
How the values were obtained:
[1] = target: T1, Cyclin-dependent kinase 8 (Homo sapiens, UniProt P49336); experiment: Inhibition of CDK8 (unknown origin) in presence of ATP by ADP-Glo assay
[2] = system: A-375; experiment: Antiproliferative activity against human A-375 cells incubated for 48 hrs by CCK8 assay; type: functional
[3] = target: Cyclin-Y/Cyclin-dependent kinase 16 (Homo sapiens) (UniProt Q00536+Q8ND76); experiment: Inhibition of CDK16/CyclinY (unknown origin) at 1 uM preincubated for 10 mins followed by substrate addition measured for 60 to 120 mins by HTRF assay relative to control; type: protein-complex assay; settings: time 70-130 min
[4] = target: CDK1/Cyclin A (Homo sapiens) (UniProt P06493+P20248); experiment: Inhibition of CDK1/Cyclin A2 (unknown origin) at 1 uM preincubated for 10 mins followed by substrate addition measured for 60 to 120 mins by HTRF assay relative to control; type: protein-complex assay; settings: time 70-130 min
CDK1/Cyclin A (Homo sapiens), sequence (P06493 whole entry, looked up): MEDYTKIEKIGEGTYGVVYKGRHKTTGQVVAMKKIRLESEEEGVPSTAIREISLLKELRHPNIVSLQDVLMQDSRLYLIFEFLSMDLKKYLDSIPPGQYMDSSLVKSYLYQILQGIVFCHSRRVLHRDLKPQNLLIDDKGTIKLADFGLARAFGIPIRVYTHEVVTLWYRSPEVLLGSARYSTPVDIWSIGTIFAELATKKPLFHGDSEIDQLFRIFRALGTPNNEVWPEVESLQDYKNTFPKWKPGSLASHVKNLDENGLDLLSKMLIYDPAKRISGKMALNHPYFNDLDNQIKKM
CDK1/Cyclin A (Homo sapiens), sequence (P20248 whole entry, looked up): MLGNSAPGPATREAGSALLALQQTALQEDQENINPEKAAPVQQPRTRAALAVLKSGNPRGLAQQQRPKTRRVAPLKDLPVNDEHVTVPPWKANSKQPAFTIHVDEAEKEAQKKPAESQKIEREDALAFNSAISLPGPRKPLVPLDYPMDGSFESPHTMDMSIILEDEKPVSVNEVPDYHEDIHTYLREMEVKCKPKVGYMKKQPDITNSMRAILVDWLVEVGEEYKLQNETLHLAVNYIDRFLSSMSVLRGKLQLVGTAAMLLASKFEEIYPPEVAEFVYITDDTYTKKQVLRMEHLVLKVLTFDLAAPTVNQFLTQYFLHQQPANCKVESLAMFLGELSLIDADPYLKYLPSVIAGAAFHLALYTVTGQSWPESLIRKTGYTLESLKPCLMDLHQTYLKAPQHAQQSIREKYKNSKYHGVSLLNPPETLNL

[5] = target: Tyrosine-protein kinase Lyn (Homo sapiens) (UniProt P07948); experiment: Inhibition of LYNb (unknown origin) at 1 uM preincubated for 10 mins followed by substrate addition measured for 60 to 120 mins by HTRF assay relative to control; settings: time 70-130 min
[6] = target: Protein-tyrosine kinase 6 (Homo sapiens) (UniProt Q13882); experiment: Inhibition of BRK (unknown origin) at 1 uM preincubated for 10 mins followed by substrate addition measured for 60 to 120 mins by HTRF assay relative to control; settings: time 70-130 min
[7] = target: Epidermal growth factor receptor (Homo sapiens) (UniProt P00533); experiment: Inhibition of EGFR (unknown origin) at 1 uM preincubated for 10 mins followed by substrate addition measured for 60 to 120 mins by HTRF assay relative to control; settings: time 70-130 min
[8] = target: Tyrosine-protein kinase BTK (Homo sapiens) (UniProt Q06187); experiment: Inhibition of BTK (unknown origin) at 1 uM preincubated for 10 mins followed by substrate addition measured for 60 to 120 mins by HTRF assay relative to control; settings: time 70-130 min
[9] = target: Fibroblast growth factor receptor 2 (Homo sapiens) (UniProt P21802); experiment: Inhibition of FGFR2 (unknown origin) at 1 uM preincubated for 10 mins followed by substrate addition measured for 60 to 120 mins by HTRF assay relative to control; settings: time 70-130 min
[10] = target: Tyrosine-protein kinase FRK (Homo sapiens) (UniProt P42685); experiment: Inhibition of FRK (unknown origin) at 1 uM preincubated for 10 mins followed by substrate addition measured for 60 to 120 mins by HTRF assay relative to control; settings: time 70-130 min
[11] = target: Proto-oncogene tyrosine-protein kinase Src (Homo sapiens) (UniProt P12931); experiment: Inhibition of SRC (unknown origin) at 1 uM preincubated for 10 mins followed by substrate addition measured for 60 to 120 mins by HTRF assay relative to control; settings: time 70-130 min
[12] = target: Ephrin type-A receptor 1 (Homo sapiens) (UniProt P21709); experiment: Inhibition of EPHA1 (unknown origin) at 1 uM preincubated for 10 mins followed by substrate addition measured for 60 to 120 mins by HTRF assay relative to control; settings: time 70-130 min
[13] = target: Tyrosine-protein kinase Yes (Homo sapiens) (UniProt P07947); experiment: Inhibition of YES (unknown origin) at 1 uM preincubated for 10 mins followed by substrate addition measured for 60 to 120 mins by HTRF assay relative to control; settings: time 70-130 min
[14] = target: Ephrin type-A receptor 6 (Homo sapiens) (UniProt Q9UF33); experiment: Inhibition of EPHA6 (unknown origin) at 1 uM preincubated for 10 mins followed by substrate addition measured for 60 to 120 mins by HTRF assay relative to control; settings: time 70-130 min
Ephrin type-A receptor 6 (Homo sapiens), sequence (Q9UF33 whole entry): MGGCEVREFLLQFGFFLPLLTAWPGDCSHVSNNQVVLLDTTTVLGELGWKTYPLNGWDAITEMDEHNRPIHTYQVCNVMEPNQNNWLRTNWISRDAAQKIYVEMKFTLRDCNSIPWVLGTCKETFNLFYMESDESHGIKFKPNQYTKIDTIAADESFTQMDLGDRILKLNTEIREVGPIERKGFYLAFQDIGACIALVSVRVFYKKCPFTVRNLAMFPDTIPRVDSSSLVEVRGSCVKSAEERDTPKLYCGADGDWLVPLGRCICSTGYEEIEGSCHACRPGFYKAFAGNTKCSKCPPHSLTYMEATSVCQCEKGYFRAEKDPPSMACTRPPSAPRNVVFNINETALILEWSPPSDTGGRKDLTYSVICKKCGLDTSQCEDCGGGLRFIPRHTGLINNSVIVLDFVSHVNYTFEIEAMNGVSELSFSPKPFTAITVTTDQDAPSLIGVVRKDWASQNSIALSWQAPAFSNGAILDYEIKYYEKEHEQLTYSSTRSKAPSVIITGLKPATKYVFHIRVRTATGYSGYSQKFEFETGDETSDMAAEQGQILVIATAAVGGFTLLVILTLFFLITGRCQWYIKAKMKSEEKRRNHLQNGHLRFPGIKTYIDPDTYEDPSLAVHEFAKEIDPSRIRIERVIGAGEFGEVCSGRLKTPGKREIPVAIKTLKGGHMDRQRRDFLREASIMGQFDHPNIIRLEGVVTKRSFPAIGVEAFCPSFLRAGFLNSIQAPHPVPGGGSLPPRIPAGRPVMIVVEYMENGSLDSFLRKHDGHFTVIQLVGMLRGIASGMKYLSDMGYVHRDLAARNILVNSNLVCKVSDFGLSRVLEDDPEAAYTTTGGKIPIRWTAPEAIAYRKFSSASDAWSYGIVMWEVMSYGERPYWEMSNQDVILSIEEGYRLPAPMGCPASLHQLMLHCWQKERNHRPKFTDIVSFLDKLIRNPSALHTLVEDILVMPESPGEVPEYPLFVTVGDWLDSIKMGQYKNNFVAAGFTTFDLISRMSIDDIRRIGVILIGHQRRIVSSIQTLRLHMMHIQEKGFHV

[15] = target: Tyrosine-protein kinase Tec (Homo sapiens) (UniProt P42680); experiment: Inhibition of TEC (unknown origin) at 1 uM preincubated for 10 mins followed by substrate addition measured for 60 to 120 mins by HTRF assay relative to control; settings: time 70-130 min
Tyrosine-protein kinase Tec (Homo sapiens), sequence (P42680 whole entry): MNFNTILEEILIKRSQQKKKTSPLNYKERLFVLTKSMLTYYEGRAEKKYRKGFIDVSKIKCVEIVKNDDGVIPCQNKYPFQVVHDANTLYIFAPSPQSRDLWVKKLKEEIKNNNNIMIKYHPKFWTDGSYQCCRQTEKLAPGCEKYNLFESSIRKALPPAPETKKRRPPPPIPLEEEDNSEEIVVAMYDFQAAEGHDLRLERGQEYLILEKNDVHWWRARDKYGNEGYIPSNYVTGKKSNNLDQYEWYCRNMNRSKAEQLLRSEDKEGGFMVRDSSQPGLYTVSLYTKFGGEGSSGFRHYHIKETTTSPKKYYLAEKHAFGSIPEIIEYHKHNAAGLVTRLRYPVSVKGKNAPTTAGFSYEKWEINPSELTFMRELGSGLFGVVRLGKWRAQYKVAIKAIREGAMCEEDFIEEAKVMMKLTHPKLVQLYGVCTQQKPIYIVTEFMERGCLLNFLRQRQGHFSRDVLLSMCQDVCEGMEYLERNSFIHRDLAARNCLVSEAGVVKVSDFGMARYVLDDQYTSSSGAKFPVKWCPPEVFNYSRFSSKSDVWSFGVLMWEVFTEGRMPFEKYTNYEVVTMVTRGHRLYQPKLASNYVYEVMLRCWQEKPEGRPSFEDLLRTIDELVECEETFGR

[16] = target: Ephrin type-A receptor 2 (Homo sapiens) (UniProt P29317); experiment: Inhibition of EPHA2 (unknown origin) at 1 uM preincubated for 10 mins followed by substrate addition measured for 60 to 120 mins by HTRF assay relative to control; settings: time 70-130 min
[17] = target: Mast/stem cell growth factor receptor Kit (Homo sapiens) (UniProt P10721); experiment: Inhibition of KIT (unknown origin) at 1 uM preincubated for 10 mins followed by substrate addition measured for 60 to 120 mins by HTRF assay relative to control; settings: time 70-130 min
Mast/stem cell growth factor receptor Kit (Homo sapiens), sequence (P10721 whole entry): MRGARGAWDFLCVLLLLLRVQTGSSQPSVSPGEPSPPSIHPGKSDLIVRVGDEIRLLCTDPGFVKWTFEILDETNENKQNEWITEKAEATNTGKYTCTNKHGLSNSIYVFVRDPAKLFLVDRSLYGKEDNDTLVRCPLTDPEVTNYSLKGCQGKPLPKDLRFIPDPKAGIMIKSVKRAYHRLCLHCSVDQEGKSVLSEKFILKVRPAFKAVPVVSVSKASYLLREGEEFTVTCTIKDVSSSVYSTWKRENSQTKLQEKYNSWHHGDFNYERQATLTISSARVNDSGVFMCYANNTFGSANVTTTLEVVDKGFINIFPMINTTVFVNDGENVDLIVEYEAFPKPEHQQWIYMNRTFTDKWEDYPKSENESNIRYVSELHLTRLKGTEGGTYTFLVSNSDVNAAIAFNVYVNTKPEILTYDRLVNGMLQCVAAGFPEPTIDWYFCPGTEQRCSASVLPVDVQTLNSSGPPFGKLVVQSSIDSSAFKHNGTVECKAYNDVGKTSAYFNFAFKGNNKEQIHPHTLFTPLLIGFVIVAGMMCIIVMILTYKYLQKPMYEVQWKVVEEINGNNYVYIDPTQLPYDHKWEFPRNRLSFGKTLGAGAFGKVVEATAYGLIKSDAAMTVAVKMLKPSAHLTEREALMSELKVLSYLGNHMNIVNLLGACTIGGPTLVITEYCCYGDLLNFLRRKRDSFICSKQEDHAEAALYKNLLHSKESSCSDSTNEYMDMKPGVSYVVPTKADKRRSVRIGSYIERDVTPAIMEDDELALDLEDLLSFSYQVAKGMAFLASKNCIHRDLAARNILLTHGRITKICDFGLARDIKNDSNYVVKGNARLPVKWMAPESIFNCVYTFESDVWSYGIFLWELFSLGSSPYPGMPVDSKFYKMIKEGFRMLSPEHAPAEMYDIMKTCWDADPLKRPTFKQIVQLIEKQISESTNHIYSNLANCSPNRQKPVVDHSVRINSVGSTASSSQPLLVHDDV

[18] = target: Tyrosine-protein kinase Mer (Homo sapiens) (UniProt Q12866); experiment: Inhibition of MER (unknown origin) at 1 uM preincubated for 10 mins followed by substrate addition measured for 60 to 120 mins by HTRF assay relative to control; settings: time 70-130 min
Tyrosine-protein kinase Mer (Homo sapiens), sequence (Q12866 whole entry): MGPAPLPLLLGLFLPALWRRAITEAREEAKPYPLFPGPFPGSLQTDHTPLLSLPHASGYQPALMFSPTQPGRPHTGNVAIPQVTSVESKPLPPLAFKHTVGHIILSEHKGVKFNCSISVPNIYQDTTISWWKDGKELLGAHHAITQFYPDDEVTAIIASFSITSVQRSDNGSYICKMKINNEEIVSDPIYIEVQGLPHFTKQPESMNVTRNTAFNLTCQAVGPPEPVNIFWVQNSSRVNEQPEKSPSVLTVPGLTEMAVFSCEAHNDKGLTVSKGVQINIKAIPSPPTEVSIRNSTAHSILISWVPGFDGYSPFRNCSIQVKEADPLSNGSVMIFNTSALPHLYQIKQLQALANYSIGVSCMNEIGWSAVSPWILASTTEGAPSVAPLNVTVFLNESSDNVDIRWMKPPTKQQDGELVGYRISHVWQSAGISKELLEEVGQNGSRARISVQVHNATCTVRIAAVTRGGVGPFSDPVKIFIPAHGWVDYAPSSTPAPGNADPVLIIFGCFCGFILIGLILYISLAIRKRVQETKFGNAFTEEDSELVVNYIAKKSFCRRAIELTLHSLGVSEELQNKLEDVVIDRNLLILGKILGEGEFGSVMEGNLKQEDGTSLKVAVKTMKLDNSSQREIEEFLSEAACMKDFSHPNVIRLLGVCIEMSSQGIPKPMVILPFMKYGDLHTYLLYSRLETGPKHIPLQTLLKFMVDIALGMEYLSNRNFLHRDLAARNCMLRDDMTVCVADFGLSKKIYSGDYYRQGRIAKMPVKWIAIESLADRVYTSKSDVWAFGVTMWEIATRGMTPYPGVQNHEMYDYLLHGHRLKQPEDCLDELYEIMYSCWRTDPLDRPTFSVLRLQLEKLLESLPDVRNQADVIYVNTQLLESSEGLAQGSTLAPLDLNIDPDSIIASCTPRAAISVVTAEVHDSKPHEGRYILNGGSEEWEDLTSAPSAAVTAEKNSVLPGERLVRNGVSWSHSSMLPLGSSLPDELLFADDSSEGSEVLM

[19] = target: Non-receptor tyrosine-protein kinase TYK2 (Homo sapiens) (UniProt P29597); experiment: Inhibition of TYK2 (unknown origin) at 1 uM preincubated for 10 mins followed by substrate addition measured for 60 to 120 mins by HTRF assay relative to control; settings: time 70-130 min
[20] = system: HL-60; experiment: Effect on cell cycle at S phase in human HL-60 cells at 1 to 10 uM incubated for 48 hrs by […]PI staining based flow cytometry; type: functional; settings: dose 1-10 µM
[21] = target: T1, Cyclin-dependent kinase 8; experiment: Binding affinity to flag-tagged CDK8 (unknown origin) transfected in HEK-293T cells upto 4 uM incubated for 12 hrs by biotin pull down based Western blot analysis; type: cell-based
[22] = system: HL-60; experiment: Induction of apoptosis in human HL-60 cells assessed as necrotic cells at 5 uM incubated for 48 hrs by annexin V-FITC/PI staining based flow cytometry (reference value: 0.26 %); type: functional
[23] = system: HL-60; experiment: Induction of apoptosis in human HL-60 cells assessed as viable cells at 10 uM incubated for 48 hrs by annexin V-FITC/PI staining based flow cytometry (reference value: 96.5 %); type: functional; settings: read-out: Activity
[24] = Half life in Sprague-Dawley rat at 10 mg/kg, po; type: ADME, organism-based; settings: in vivo
[25] = Clearance in Sprague-Dawley rat at 10 mg/kg, po; type: ADME, organism-based; settings: in vivo
[26] = AUC (0 to infinity) in Sprague-Dawley rat at 2 mg/kg, iv; type: ADME, organism-based; set-up: dose 2 mg/kg, route iv; settings: in vivo
[27] = Clearance in Sprague-Dawley rat at 2 mg/kg, iv; type: ADME, organism-based; settings: in vivo
[28] = Acute toxicity in C57BL/6 mouse assessed as histopathological change in kidney at 2000 mg/kg, IG measured for 14 days by H&E staining based analysis; type: organism-based; settings: in vivo, po, 336 h, time 14 day
[29] = system: C1498; experiment: Antitumor activity against mouse C1498 cells allografted in AML Balb/C mouse model assessed as reduction in tumor growth at 40 to 80 mg/kg, po administered daily for 15 days measured on every 2 days; type: functional, organism-based; settings: dose 40-80 mg/kg, time 15.0 day
[30] = system: C1498; experiment: Downregulation of STAT1 S727 phosphorylation in mouse C1498 cells allografted in AML Balb/C mouse model at 40 to 80 mg/kg, po administered daily for 15 days measured after 3 weeks by IHC analysis; type: functional, organism-based; settings: dose 40-80 mg/kg, time 15.0 day
[31] = system: C1498; experiment: Downregulation of STAT1 S727 expression in mouse C1498 cells allografted in AML Balb/C mouse model administered orally daily for 15 days measured after 3 weeks by Western blot analysis; type: functional, cell-based; settings: dose 40-80 mg/kg, route po, time 15.0 day

T1 sequence (P49336 whole entry): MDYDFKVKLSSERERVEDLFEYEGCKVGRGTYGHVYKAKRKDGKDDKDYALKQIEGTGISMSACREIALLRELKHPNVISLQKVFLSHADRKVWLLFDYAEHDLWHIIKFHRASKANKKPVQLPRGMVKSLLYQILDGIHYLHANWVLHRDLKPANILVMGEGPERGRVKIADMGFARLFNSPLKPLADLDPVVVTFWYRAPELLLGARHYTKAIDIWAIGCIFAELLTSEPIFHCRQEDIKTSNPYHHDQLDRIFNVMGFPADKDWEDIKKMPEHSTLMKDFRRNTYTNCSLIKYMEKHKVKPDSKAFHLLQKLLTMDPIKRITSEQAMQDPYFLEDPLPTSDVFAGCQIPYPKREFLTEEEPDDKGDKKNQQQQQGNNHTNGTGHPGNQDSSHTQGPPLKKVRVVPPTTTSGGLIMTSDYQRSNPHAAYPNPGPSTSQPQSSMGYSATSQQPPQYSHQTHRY

In the case of `NC(=O)c1cccc(-c2cnc3[nH]ccc3c2)c1`, the IC50 [1] is reported as 51.9 nM, the GI50 [2] is reported as over 50000 nM and the inhibition [3] is reported as 16.6%. The inhibition [4] was 8.45%, the inhibition [5] was 13.1% and the inhibition [6] was 12.7%. For the same molecule, the inhibition [7] was 8.01%, the inhibition [8] was 5.27% and the inhibition [9] was 4.02%. For the same molecule, the inhibition [10] was 3.82%, the inhibition [11] was 0% and the inhibition [12] was 0%. It also gave an inhibition [13] of 0%, an inhibition [14] of 0% and an inhibition [15] of 0%. For the same molecule, the inhibition [16] was 0%, the inhibition [17] was 0% and the inhibition [18] was 0%. The inhibition [19] was 0%, the Activity [20] was “inactive” and the Activity [21] was “Active”. The Activity [22] was 8.48%, the viability at 10 µM [23] was 37.8% and the half-life [24] was 1.4 h. For the same molecule, the CL/F [25] was 285 mL/min/kg, the AUC(0-inf) [26] was 310 ng·h/mL and the clearance [27] was 118 mL/min/kg. The Activity [28] was “Non-Toxic”, the Activity [29] was “Active” and the Activity [30] was “Active”. For the same molecule, the Activity [31] was “Dose-Dependent Effect”.
